Assay results as given in ChEMBL document CHEMBL4507286 (2021).
Active and inactive are the calls of the source. No cut-off for these calls is given here.

Legend:
[1] = target: Tyrosine-protein kinase receptor Tie-1 (Homo sapiens) (UniProt P35590)
[2] = target: Serine/threonine-protein kinase Sgk3 (Homo sapiens) (UniProt Q96BR1)
[3] = target: Mitogen-activated protein kinase 1 (Homo sapiens, UniProt P28482); assay: ERK Biochemical Assay
[4] = target: Mitogen-activated protein kinase kinase kinase 19 (Homo sapiens) (UniProt Q56UN5)
Rattus norvegicus = species on record: Rattus norvegicus; conditions: Compound concentration 10.0 uM
[5] = target: MAP/microtubule affinity-regulating kinase 4 (Homo sapiens) (UniProt Q96L34)
[6] = target: 5-hydroxytryptamine receptor 3A (Homo sapiens) (UniProt P46098); conditions: Compound concentration 10.0 uM
[7] = target: Receptor-interacting serine/threonine-protein kinase 4 (Homo sapiens) (UniProt P57078)
[8] = target: Serine/threonine-protein kinase Nek2 (Homo sapiens) (UniProt P51955)
[9] = target: 5'-AMP-activated protein kinase catalytic subunit alpha-2 (Homo sapiens) (UniProt P54646)
[10] = target: Mitogen-activated protein kinase 9 (Homo sapiens) (UniProt P45984)
[11] = target: Serine/threonine-protein kinase Nek7 (Homo sapiens) (UniProt Q8TDX7)
[12] = target: Serine/threonine-protein kinase Nek1 (Homo sapiens) (UniProt Q96PY6)
[13] = target: Activin receptor type-1 (Homo sapiens) (UniProt Q04771)
[14] = target: Insulin receptor-related protein (Homo sapiens) (UniProt P14616)
[15] = target: SRSF protein kinase 2 (Homo sapiens) (UniProt P78362)
[16] = target: Tyrosine-protein kinase ABL1 (Homo sapiens) (UniProt P00519)
[17] = target: Vascular endothelial growth factor receptor 1 (Homo sapiens) (UniProt P17948)
[18] = target: D(1A) dopamine receptor (Homo sapiens) (UniProt P21728); conditions: Compound concentration 10.0 uM
[19] = target: Dual specificity protein kinase TTK (Homo sapiens) (UniProt P33981)
[20] = target: AP2-associated protein kinase 1 (Homo sapiens) (UniProt Q2M2I8)
[21] = target: Tyrosine-protein kinase Blk (Homo sapiens) (UniProt P51451)
[22] = target: Phosphatidylinositol 4,5-bisphosphate 3-kinase catalytic subunit beta isoform (Homo sapiens) (UniProt P42338)
[23] = target: Serine/threonine-protein kinase PAK 4 (Homo sapiens) (UniProt O96013)
[24] = target: Calcium/calmodulin-dependent protein kinase type 1B (Homo sapiens) (UniProt Q6P2M8)
[25] = tested on: Mast/stem cell growth factor receptor Kit (Homo sapiens), P10721 [V559D]
[26] = target: Serine/threonine-protein kinase tousled-like 2 (Homo sapiens) (UniProt Q86UE8)
[27] = target: Mitogen-activated protein kinase 3 (Homo sapiens) (UniProt P27361)
[28] = target: Mitogen-activated protein kinase 11 (Homo sapiens) (UniProt Q15759)
[29] = target: Alpha-2B adrenergic receptor (Homo sapiens) (UniProt P18089); conditions: Compound concentration 10.0 uM
[30] = target: 5-hydroxytryptamine receptor 7 (Homo sapiens) (UniProt P34969); conditions: Compound concentration 10.0 uM
[31] = target: STE20/SPS1-related proline-alanine-rich protein kinase (Homo sapiens) (UniProt Q9UEW8)
[32] = target: Myosin light chain kinase (Homo sapiens) (UniProt Q32MK0)
[33] = target: Serine/threonine-protein kinase 32B (Homo sapiens) (UniProt Q9NY57)
[34] = target: Tyrosine-protein kinase FRK (Homo sapiens) (UniProt P42685)
[35] = target: LIM domain kinase 1 (Homo sapiens) (UniProt P53667)
[36] = target: Mitogen-activated protein kinase 12 (Homo sapiens) (UniProt P53778)
[37] = target: Tyrosine-protein kinase Mer (Homo sapiens) (UniProt Q12866)
[38] = target: Serine/threonine-protein kinase RIO2 (Homo sapiens) (UniProt Q9BVS4)
[39] = target: Muscle, skeletal receptor tyrosine-protein kinase (Homo sapiens) (UniProt O15146)
[40] = target: Angiopoietin-1 receptor (Homo sapiens) (UniProt Q02763)
[41] = target: Aurora kinase B (Homo sapiens) (UniProt Q96GD4)
[42] = target: Cyclin-dependent kinase 7 (Homo sapiens, UniProt P50613)
[43] = tested on: Phosphatidylinositol 4,5-bisphosphate 3-kinase catalytic subunit alpha isoform (Homo sapiens), P42336 [H1047L]
[44] = target: Interleukin-1 receptor-associated kinase 4 (Homo sapiens) (UniProt Q9NWZ3)
[45] = target: Phosphatidylinositol 5-phosphate 4-kinase type-2 beta (Homo sapiens) (UniProt P78356)
[46] = Compound concentration 1000.0 nM
[47] = Compound concentration 100.0 nM

Mast/stem cell growth factor receptor Kit (Homo sapiens), P10721 [V559D], sequence (P10721 whole entry V559D): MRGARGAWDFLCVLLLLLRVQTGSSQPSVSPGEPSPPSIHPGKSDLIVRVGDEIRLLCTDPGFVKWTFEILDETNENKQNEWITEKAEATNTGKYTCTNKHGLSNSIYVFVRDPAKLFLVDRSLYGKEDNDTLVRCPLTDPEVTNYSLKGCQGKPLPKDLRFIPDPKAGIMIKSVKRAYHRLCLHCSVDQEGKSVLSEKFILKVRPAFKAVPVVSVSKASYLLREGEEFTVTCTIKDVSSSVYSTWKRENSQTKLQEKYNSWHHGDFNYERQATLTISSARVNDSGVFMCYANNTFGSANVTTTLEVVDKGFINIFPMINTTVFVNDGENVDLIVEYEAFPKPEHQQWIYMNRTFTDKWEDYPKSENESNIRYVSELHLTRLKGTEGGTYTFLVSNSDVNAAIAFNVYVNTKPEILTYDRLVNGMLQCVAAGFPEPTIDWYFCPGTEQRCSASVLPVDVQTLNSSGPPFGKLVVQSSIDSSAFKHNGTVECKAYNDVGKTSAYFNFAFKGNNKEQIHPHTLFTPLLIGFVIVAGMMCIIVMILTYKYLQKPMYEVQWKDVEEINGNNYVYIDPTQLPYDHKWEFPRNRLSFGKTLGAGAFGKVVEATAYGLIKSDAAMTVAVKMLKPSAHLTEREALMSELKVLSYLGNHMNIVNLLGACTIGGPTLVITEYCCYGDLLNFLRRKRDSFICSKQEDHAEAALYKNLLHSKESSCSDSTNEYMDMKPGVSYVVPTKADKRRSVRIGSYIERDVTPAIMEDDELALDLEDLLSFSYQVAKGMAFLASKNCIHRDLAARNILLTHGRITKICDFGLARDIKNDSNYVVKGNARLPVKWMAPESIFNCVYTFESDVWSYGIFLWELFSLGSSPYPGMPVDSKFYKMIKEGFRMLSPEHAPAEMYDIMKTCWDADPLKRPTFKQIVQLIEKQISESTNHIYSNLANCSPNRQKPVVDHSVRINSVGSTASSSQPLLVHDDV
Phosphatidylinositol 4,5-bisphosphate 3-kinase catalytic subunit beta isoform (Homo sapiens), sequence (P42338 whole entry, looked up, canonical isoform): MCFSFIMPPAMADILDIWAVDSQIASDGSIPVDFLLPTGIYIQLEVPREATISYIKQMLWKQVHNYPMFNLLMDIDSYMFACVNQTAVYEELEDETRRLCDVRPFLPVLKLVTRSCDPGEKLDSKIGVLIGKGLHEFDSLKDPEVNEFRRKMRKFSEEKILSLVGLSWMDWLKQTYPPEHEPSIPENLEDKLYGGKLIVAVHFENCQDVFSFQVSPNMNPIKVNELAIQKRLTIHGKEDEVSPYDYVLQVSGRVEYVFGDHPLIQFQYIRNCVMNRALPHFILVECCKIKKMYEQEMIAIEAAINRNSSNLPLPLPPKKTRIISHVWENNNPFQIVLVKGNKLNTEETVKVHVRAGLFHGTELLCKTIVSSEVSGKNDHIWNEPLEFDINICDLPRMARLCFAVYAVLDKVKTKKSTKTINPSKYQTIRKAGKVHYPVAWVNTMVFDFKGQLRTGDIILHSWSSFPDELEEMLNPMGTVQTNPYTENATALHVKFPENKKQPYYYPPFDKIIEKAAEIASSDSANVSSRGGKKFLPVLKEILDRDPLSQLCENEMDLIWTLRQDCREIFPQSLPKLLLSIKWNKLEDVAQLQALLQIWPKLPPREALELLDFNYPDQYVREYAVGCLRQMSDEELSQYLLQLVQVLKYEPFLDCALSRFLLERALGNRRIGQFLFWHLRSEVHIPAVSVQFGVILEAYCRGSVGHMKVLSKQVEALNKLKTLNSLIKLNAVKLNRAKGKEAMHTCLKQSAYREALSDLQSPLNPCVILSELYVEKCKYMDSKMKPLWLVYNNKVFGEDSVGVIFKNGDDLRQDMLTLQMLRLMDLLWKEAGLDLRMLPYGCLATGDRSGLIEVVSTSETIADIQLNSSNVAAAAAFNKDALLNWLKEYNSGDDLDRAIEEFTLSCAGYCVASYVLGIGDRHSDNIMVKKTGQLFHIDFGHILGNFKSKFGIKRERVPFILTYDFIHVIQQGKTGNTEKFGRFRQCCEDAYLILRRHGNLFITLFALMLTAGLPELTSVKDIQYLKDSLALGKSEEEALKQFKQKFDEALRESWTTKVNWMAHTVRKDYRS
Angiopoietin-1 receptor (Homo sapiens), sequence (Q02763 whole entry): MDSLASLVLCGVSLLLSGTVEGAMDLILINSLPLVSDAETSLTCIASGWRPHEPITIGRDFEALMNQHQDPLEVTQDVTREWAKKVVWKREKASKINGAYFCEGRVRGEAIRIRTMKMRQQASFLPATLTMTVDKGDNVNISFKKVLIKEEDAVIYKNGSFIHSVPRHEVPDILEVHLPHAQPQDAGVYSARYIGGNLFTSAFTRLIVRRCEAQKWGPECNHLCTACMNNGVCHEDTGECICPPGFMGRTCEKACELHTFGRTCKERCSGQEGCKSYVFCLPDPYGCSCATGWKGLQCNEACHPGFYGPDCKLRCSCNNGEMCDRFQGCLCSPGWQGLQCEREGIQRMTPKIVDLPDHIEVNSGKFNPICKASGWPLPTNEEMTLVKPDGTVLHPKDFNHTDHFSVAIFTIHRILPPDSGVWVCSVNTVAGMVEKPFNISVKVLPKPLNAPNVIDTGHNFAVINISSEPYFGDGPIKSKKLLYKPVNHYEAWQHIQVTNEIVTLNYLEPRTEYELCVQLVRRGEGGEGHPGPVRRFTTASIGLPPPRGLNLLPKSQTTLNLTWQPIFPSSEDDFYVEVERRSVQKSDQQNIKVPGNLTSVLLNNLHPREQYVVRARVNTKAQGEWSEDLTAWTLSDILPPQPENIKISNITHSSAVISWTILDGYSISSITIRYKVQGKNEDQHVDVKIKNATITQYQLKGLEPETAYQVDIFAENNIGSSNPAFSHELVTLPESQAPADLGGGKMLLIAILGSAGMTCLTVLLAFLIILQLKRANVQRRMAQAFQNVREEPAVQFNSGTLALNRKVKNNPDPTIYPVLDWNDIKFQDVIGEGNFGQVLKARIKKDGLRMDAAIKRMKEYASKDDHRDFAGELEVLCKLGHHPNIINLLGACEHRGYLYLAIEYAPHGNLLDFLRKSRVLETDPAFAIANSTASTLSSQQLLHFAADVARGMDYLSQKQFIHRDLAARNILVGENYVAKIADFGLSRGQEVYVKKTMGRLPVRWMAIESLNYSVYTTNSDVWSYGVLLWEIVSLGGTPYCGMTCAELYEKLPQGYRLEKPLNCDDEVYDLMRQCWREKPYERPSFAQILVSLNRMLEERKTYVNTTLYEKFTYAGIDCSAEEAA
Serine/threonine-protein kinase PAK 4 (Homo sapiens), sequence (O96013 whole entry, looked up): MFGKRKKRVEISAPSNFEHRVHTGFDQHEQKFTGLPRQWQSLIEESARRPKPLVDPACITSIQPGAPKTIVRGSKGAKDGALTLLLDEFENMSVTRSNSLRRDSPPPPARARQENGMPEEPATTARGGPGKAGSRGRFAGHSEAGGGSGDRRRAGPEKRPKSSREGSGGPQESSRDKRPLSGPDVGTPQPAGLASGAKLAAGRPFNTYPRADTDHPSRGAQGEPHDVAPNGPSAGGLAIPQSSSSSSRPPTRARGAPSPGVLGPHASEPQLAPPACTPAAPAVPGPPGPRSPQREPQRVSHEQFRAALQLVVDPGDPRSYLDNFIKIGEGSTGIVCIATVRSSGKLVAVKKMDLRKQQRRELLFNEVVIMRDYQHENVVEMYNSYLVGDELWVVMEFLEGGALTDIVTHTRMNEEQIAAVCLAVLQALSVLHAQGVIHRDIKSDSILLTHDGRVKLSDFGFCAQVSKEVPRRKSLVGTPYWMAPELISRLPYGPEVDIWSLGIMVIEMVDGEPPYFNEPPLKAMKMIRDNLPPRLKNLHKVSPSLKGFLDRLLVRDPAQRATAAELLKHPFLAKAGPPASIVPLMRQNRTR
Mitogen-activated protein kinase 3 (Homo sapiens), sequence (P27361 whole entry): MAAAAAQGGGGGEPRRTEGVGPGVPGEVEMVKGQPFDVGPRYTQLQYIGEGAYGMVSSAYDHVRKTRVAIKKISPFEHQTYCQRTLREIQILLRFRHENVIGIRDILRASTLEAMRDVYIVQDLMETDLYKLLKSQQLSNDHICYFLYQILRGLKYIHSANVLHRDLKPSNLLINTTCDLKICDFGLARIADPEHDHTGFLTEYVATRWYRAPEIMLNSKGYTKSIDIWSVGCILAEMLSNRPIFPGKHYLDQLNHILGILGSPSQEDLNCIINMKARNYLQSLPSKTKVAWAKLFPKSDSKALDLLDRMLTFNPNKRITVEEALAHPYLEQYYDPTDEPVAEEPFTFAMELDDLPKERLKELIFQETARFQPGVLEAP
Serine/threonine-protein kinase Nek2 (Homo sapiens), sequence (P51955 whole entry): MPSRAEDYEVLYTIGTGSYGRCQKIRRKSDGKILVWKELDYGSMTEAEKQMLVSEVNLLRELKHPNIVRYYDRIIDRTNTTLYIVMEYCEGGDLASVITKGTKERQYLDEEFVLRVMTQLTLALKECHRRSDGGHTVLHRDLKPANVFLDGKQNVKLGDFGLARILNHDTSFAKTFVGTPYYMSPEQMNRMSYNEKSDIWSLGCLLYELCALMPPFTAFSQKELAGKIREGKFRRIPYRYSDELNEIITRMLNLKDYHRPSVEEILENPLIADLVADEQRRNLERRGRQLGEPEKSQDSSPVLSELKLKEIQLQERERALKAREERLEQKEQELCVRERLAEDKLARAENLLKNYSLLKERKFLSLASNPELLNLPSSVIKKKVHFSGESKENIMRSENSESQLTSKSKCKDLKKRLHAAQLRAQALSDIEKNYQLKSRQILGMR
Alpha-2B adrenergic receptor (Homo sapiens), sequence (P18089 whole entry): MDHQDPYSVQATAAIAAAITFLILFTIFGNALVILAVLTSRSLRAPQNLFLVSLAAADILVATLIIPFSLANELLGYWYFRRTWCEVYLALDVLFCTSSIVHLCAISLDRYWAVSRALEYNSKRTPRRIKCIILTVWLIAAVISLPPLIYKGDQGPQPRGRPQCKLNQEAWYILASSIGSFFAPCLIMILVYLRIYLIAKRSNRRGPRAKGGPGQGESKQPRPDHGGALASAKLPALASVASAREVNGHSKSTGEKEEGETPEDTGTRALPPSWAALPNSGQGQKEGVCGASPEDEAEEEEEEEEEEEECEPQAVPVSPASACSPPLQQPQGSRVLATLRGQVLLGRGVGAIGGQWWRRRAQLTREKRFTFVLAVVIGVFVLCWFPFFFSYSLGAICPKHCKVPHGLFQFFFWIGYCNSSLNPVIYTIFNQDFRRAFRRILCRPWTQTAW

For `C[C@H](NC(=O)Nc1cc2[nH]ncc2c(CO)n1)c1ccccn1` [ERKi-NC], the residual activity [1, 46] was 86.8%, the residual activity [2, 46] was 93.6% and the IC50 [3] was 1780 nM (not active). The residual activity [4, 46] was 100%, the inhibition (Rattus norvegicus) was -1.65% and the residual activity [5, 46] was 100%. For the same compound, the inhibition [6] was -0.282%, the residual activity [7, 46] was 100% and the residual activity [8, 46] was 96.9%. The residual activity [9, 46] was 100%, the residual activity [10, 46] was 100% and the residual activity [11, 46] was 98%. It also gave a residual activity [12, 46] of 100%, a residual activity [13, 46] of 81.8% and a residual activity [14, 46] of 100%. The residual activity [15, 46] was 100%, the residual activity [16, 46] was 51.5% and the residual activity [17, 46] was 100%. It also gave an inhibition [18] of 4.28%, a residual activity [19, 46] of 80.3% and a residual activity [20, 46] of 100%. The residual activity [21, 46] was 100%, the residual activity [22, 46] was 100% and the residual activity [23, 46] was 90.2%. It also gave a residual activity [24, 46] of 98.5%, a residual activity [25, 46] of 100% and a residual activity [26, 46] of 88.4%. For the same compound, the residual activity [27, 46] was 17%, the residual activity [28, 46] was 100% and the inhibition [29] was -0.465%. It also gave an inhibition [30] of 33.4%, a residual activity [31, 46] of 80.9% and a residual activity [32, 46] of 100%. For the same compound, the residual activity [33, 46] was 100%, the residual activity [34, 46] was 100% and the residual activity [35, 46] was 100%. It also gave a residual activity [36, 46] of 48.4%, a residual activity [37, 46] of 100% and a residual activity [38, 46] of 100%. For the same compound, the residual activity [39, 46] was 100%, the residual activity [40, 46] was 71.1% and the residual activity [41, 46] was 79.8%. For the same compound, the residual activity [42, 46] was 100%, the residual activity [43, 46] was 100% and the residual activity [44, 46] was 100%. The residual activity [45, 46] was 99.5%.
For `C[C@@H](NC(=O)Nc1cc2[nH]ncc2c(CO)n1)c1ccccc1` [ERKi], the residual activity [1, 47] was 71.2%, the residual activity [2, 47] was 83.2% and the IC50 [3] was 1.8 nM (active). The residual activity [4, 47] was 86.2%, the inhibition (Rattus norvegicus) was 8.66% and the residual activity [5, 47] was 96%. It also gave an inhibition [6] of 4.36%, a residual activity [7, 47] of 76% and a residual activity [8, 47] of 100%. It also gave a residual activity [9, 47] of 59.6%, a residual activity [10, 47] of 79.5% and a residual activity [11, 47] of 76.9%. It also gave a residual activity [12, 47] of 74.1%, a residual activity [13, 47] of 98.3% and a residual activity [14, 47] of 82.9%. For the same compound, the residual activity [15, 47] was 61.2%, the residual activity [16, 47] was 85.9% and the residual activity [17, 47] was 100%. The inhibition [18] was -3.5%, the residual activity [19, 47] was 85.2% and the residual activity [20, 47] was 52.5%. For the same compound, the residual activity [21, 47] was 100%, the residual activity [22, 47] was 81.5% and the residual activity [23, 47] was 93.7%. The residual activity [24, 47] was 91.2%, the residual activity [25, 47] was 88.3% and the residual activity [26, 47] was 86.9%. The residual activity [27, 47] was 0.2%, the residual activity [28, 47] was 100% and the inhibition [29] was -1.5%. The inhibition [30] was 21.8%, the residual activity [31, 47] was 100% and the residual activity [32, 47] was 100%. The residual activity [33, 47] was 96.6%, the residual activity [34, 47] was 82.2% and the residual activity [35, 47] was 94.1%. The residual activity [36, 47] was 80.7%, the residual activity [37, 47] was 100% and the residual activity [38, 47] was 84.6%. The residual activity [39, 47] was 86.8%, the residual activity [40, 47] was 100% and the residual activity [41, 47] was 100%. It also gave a residual activity [42, 47] of 73.6%, a residual activity [43, 47] of 82.1% and a residual activity [44, 47] of 76.1%. The residual activity [45, 47] was 45%.
